From patent US9289400B2, “D3 dopamine receptor agonists to treat dyskinesia in parkinson's disease” (priority 2010, dated 2016)
pKi: −log10 of the molar value. “Also recorded” adds a separate entry of the source. Where two headings read alike, the source gives them in different places.

Experiments:
D3 dopamine receptor [1] = biological target: T1, D3 dopamine receptor (Homo sapiens (Human), UniProt P35462); assay: D3 receptor tolerance and SRT: GIRK response to repeated agonist application in AtT-20 cells; assay type: cell-based; settings: AtT-20 cells expressing human D3, 100-300 nM agonist, repeated ~60 s applications
Description: To determine whether a compound abolishes the D3 receptor tolerance and SRT, the D3 receptor-activated GIRK response to two consecutive treatments of the lead compound is measured. […] Drug solutions were delivered to cells via a multi-barreled micropipette array. The current responses were normalized to the cell capacitance, to account for variation in cell size.
To identify agonists that might modulate D3 receptor tolerance and SRT properties, ten distinct agonists were screened for their ability to induce tolerance and SRT, using the D3 receptor-GIRK channel signaling pathway as an assay.
Target sequence in this assay (P35462 other isoform, or with tags, fused parts or gaps): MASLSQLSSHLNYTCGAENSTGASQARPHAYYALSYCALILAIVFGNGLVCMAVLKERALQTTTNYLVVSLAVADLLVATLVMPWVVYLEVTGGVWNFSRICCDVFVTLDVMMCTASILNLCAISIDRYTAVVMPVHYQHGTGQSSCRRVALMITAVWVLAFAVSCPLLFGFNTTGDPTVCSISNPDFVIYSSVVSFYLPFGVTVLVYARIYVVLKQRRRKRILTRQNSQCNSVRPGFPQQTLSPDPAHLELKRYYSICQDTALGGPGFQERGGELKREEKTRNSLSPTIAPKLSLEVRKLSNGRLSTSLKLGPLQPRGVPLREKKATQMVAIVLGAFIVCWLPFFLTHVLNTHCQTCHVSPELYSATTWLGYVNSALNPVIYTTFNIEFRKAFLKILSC

D3 dopamine receptor [2] = biological target: T1, D3 dopamine receptor; assay: GIRK channel activation, whole cell voltage clamp, AtT-20 cells stably expressing D3; assay type: cell-based; settings: D2/D3 antagonist eticlopride (100 nM)
Description: The activation of the GIRK channels was measured electrophysiologically using whole cell voltage clamp recording (Kuzhikandathil et al., 2004, Mol. Cell. Neurosci. 26:144-155). […]. The adenylyl cyclase inhibition was determined using a commercially available ELISA assay (Westrich & Kuzhikandathil, 2007, Biochim. Biophys. Acta-Mol. Cell. Res. 1773:1747-1758).
. In the initial screen, the ability of 300 nM lead compound to activate G-protein coupled inward rectifier potassium (GIRK) channels (FIG. 1) is measured using whole cell voltage clamp recording. The protocol has been previously used for performing whole cell voltage clamp and measuring agonist-induced GIRK response. […]. The EC50 values for each receptor subtype is determined by fitting the data points using the Hill equation.
AtT-20 mouse pituitary cells were grown in Ham's F10 medium with 5% FBS, 10% heat-inactivated horse serum, 2 mM glutamine and 50 μg/ml gentamicin (Invitrogen, Carlsbad, Calif.). AtT-20 cells stabling expressing the human D2S, D2L, D3, and D4.2 and receptor were maintained in the above F10 culture media supplemented with 500 μg/ml G418 (Invitrogen). For electrophysiological characterization, cells were plated onto glass coverslips coated with 40 μg/ml poly L-lysine (Sigma-Aldrich). […]. Physiol. 115:697-706; Kuzhikandathil et al., 1998, Mol. Cell. Neurosci. 12:390-402; Kuzhikandathil & Bartoszyk, 2006, Neuropharm. 51:873-884; Westrich & Kuzhikandathil, 2007, Biochim. Biophys. Acta-MCR 1773:1747-1758; Kuzhikandathil et al., 2004, Mol. Cell. Neurosci. 26:144-155; Westrich et al., 2010, Biochem. Pharmacol. 79:897-907).
Agonist-activated currents were measured by the whole-cell patch clamp technique in voltage clamp and current clamp mode as described previously (Kuzhikandathil & Oxford, 2000, J. Gen. Physiol. 115:697-706; Kuzhikandathil et al., 1998, Mol. Cell. Neurosci. 12:390-402; Kuzhikandathil & Bartoszyk, 2006, Neuropharm. 51:873-884; Westrich & Kuzhikandathil, 2007, Biochim. Biophys. Acta-MCR 1773:1747-1758; Kuzhikandathil et al., 2004, Mol. Cell. Neurosci. 26:144-155; Westrich et al., 2010, Biochem. Pharmacol. 79:897-907). Drug solutions were delivered to cells via a multi-barreled micropipette array. The current responses were normalized to the cell capacitance, to account for variation in cell size.
To compare the functional effects of the new class of D3 receptor agonists, PBZI (Table 2) and ES609 (Table 3) were tested on AtT-20 cells stably expressing human D3, D2S, D2L or D4.2. […]. The EC50 values of PBZI and ES609 for inhibiting adenylyl cyclase and activating GIRK channels were in the range of 0.2 nM to 30 nM for D3 receptors. […]. […]
Target sequence in this assay (P35462 other isoform, or with tags, fused parts or gaps): as above

D2S = D2S (Homo sapiens (Human), UniProt P14416); settings: Scheideler et al., 1997; cited from earlier work
[3] = test system: intrastriatal 6-OHDA lesioned rats; assay: Levodopa-induced dyskinesia (AIMs score) in intrastriatal 6-OHDA lesioned rats; assay type: in vivo, rat; settings: PD128907 0.1 mg/kg sc; PBZI 17 mg/kg sc; hydrochloride
Description: In particular, rats in which unilateral intrastriatal lesion is induced by injection of 6-OHDA (7 μg) at three different sites in the ventrolateral striatum are used. The coordinates for the three injection sites are, in mm: injection site 1: AP: +1.0; ML: −3.0; DV: −5.0; injection site 2: AP: −0.1; ML: −3.7; DV: −5.0; injection site 3: AP: −1.2; ML: −4.5; DV: −5.0. Anterior-posterior (AP) and mediolateral (ML) coordinates are from bregma. The dorso-ventral (DV) coordinates are from dura. The toothbar location is 0.
Seven and half weeks after the lesion, chronic levodopa treatment (6 mg/kg, single dose per day given with 15 mg/kg benserazide) is initiated. Stepping test and AIMs scores are determined on day 1, 8, 10, 17 and 24 after the initiation of chronic levodopa treatment. […] AIMs are scored using a rating scale based on frequency and severity of the dyskinetic symptoms. It should be noted that the rank order of the various AIMs components in terms of frequency and severity in the rat model is: limb>orolingual=axial>>locomotor. This lesion model has been used to test the effect of PBZI on LID (Example 3).
FIG. 13A illustrates the effect of control, PD128907 (a tolerance inducing D2/D3 agonist) and PBZI (a non tolerance inducing D3/D3 agonist) on the total AIMs score (includes locomotor, axial, limb and orolingual) over time of a day 17 (chronic L-DOPA phase) lesioned animal.

D3 dopamine receptor [4] = biological target: T1, D3 dopamine receptor; settings: cited from earlier work
Target sequence in this assay (P35462 whole entry): as the sequence (P35462 other isoform, or with tags, fused parts or gaps) above, with S9G counted along it

D4.2 = settings: Scheideler et al., 1997; cited from earlier work
Balb/c mice = assay: Locomotor activity (open field, TruScan) in Balb/c mice
Description: Therefore, three different doses of the lead compound are administered and their effects on locomotor activity are determined. The dosage is determined based on the functional EC50 values and binding affinity of the lead compound from the cell-based assays described above. The compound is administered to Balb/c mice and locomotor activity is monitored using the TruScan Automated Behavioral Monitoring system (Coulborn Instruments).
A total of 12 young adult, male Balb/c mice were obtained form Charles River, Inc. (Wilmington, Mass.), and housed in groups of four in standard cages. The animals were maintained on a 12 hour light/12 hour dark cycle and permitted ad lib access to food and water. Experiments were conducted during the animal's light phase. […] For PD128907, separate groups of Balb/c mice received subcutaneous injections of saline (n=4) or 0.05 or 0.4 mg/kg PD128907 (n=4, for each). Locomotion (‘distance traveled’) scores of drug-injected animals were collapsed across 10-min intervals and for comparison purposes were normalized to saline injected animals (FIG. 12A). The experiment was conducted on three separate occasions.

[5] = test system: intrastriatal 6-OHDA lesioned rats; assay: Forelimb stepping test in intrastriatal 6-OHDA lesioned rats; settings: levodopa 2, 4 and 6 mg/kg with benserazide
D4.2 dopamine receptor [6] = biological target: T2, D4.2 dopamine receptor (Homo sapiens (Human), UniProt P21917, DEL265-296); settings: Kuzhikandathil & Bartoszyk, 2006; cited from earlier work
D2L dopamine receptor [7] = biological target: T3, D2L dopamine receptor (Homo sapiens (Human), UniProt P14416); settings: Kuzhikandathil & Bartoszyk, 2006; cited from earlier work
D2S dopamine receptor = D2S dopamine receptor (Homo sapiens (Human), UniProt P14416); assay: Tolerance and SRT at D2S dopamine receptors; assay type: cell-based
D4.2 dopamine receptor [8] = biological target: T2, D4.2 dopamine receptor; settings: Kuzhikandathil & Bartoszyk, 2006; cited from earlier work; remark: listed apart in the source
D2L dopamine receptor [9] = biological target: T3, D2L dopamine receptor; settings: Kuzhikandathil & Bartoszyk, 2006; cited from earlier work; remark: listed apart in the source

T2 sequence (P21917 other isoform, or with tags, fused parts or gaps del 265-296): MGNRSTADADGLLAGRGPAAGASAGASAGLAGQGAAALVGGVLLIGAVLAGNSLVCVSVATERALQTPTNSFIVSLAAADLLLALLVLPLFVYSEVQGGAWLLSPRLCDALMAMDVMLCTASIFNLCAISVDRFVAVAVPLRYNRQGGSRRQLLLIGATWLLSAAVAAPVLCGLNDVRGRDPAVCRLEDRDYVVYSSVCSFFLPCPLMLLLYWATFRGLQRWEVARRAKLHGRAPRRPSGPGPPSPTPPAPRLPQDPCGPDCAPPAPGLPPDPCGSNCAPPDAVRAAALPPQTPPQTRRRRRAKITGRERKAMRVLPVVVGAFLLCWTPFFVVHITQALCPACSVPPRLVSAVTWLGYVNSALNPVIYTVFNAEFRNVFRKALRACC
T3 sequence (P14416 whole entry): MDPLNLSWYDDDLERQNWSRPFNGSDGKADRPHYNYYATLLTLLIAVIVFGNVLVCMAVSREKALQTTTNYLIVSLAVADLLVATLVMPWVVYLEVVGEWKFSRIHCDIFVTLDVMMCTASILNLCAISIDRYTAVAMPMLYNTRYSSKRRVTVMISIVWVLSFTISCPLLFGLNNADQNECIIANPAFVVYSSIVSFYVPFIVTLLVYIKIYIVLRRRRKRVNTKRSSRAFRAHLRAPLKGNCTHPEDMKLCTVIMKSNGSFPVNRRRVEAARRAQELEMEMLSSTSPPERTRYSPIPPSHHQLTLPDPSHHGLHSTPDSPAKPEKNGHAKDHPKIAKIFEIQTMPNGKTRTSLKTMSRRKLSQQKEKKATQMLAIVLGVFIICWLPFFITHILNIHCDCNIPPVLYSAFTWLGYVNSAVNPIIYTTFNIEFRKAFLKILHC
Chain of D2S dopamine receptor (P14416 other isoform, or with tags, fused parts or gaps): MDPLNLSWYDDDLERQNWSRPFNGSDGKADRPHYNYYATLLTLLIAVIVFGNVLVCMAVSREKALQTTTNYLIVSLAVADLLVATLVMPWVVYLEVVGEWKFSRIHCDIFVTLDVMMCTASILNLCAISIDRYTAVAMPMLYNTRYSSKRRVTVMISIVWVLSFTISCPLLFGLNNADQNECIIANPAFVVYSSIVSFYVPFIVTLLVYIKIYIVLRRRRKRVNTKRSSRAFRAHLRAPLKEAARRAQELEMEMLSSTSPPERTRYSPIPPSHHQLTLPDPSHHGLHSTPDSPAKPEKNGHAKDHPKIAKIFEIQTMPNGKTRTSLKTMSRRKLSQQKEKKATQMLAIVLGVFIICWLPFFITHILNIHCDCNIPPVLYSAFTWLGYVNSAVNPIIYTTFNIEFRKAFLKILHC
Chain of D2S (P14416 other isoform, or with tags, fused parts or gaps): as above

With `C#CC1=CCC(N(CCC)CCC)CC1` (stereo not drawn) [FAUC73, (4-ethynylcyclohex-3-enyl) dipropylamine] the “D3 receptor tolerance and SRT properties (agonist-induced GIRK response)” value (shortened to “D3 receptor tolerance and SRT properties”) (D3 dopamine receptor [1]) was “abolished the tolerance property; also recorded: abolished both tolerance and SRT properties; also recorded: do not show D3 receptor tolerance and SRT”, the “D3 receptor tolerance and SRT properties” value (D3 dopamine receptor [1]; listed as FAUC 73) was “completely abolished the receptors' tolerance and SRT properties” and the “specificity of agonist effect (eticlopride pretreatment / parental cells)” value (D3 dopamine receptor [2]) was “specific for D3 receptors”.

For `CCCN1CCO[C@@H]2c3cc(O)ccc3OC[C@H]21.Cl` [PD128907, (4aR,10bR)-3,4-a,4,10b-tetrahydro-4-propyl-2H,5H-[1]benzopyrano-[4,3-b]-1,4-oxazin-9-ol hydrochloride], the pKi (D2S) is given as 6.69, the “D3 receptor tolerance and SRT properties” value (D3 dopamine receptor [1]; hydrochloride) is given as “elicited tolerance and SRT; also recorded: induced enhanced tolerance; also recorded: induces severe tolerance and SRT” and the “D3 receptor tolerance and SRT properties” value (D3 dopamine receptor [1]; listed as PD 128907, hydrochloride) is given as “tolerance is elicited”. For the same compound, the “dyskinesia induced by the compound itself, before levodopa administration” value [3] was “in of itself induced dyskinesia; also recorded: increased AIMs score even before the levodopa was administered”, the pKi (D3 dopamine receptor [4]; D3, Scheideler et al., 1997, read-out: Ki) was 9.40 and the pKi (D3 dopamine receptor [4]; source not stated, read-out: D3 dopamine receptor binding affinity Ki) was 8.64. The pKi (D4.2) was 6.94, the “duration of hypoactivity post-injection” value (Balb/c mice; PBZI 10 mg/kg sc, PD128907 0.4 mg/kg sc) was 40 min and the “duration of hypoactivity post-injection” value (Balb/c mice; PD128907 0.05 mg/kg sc) was 20 min. The “time by which locomotor activity returns to control saline levels” value (Balb/c mice; post-injection, PBZI 10 mg/kg sc, PD128907 0.4 mg/kg sc) was no more than 120 min, the “dose at which biphasic locomotor effect was observed” value (Balb/c mice; sc) was no less than 0.05 mg/kg and the locomotor response (Balb/c mice; sc, PBZI 10 mg/kg, PD128907 0.05-0.4 mg/kg, normalized to saline, hydrochloride) was “induces both hypoactivity and hyperactivity; also recorded: biphasic locomotor response; also recorded: biphasic effect; also recorded: an initial hypoactivity (horizontal arrows) that is followed by hyperactivity”.

For `N[C@@H](Cc1ccc(O)c(O)c1)C(=O)O` [levodopa, L-3,4-dihydroxyphenylalanine], the “forelimb bradykinesia (forelimb stepping test)” value [5] was “dose dependent improvement in forelimb bradykinesia”.

In the case of `Fc1ccc(-c2cncc(CNC[C@H]3CCc4ccccc4O3)c2)cc1` [sarizotan, 1-[(2R)-3,4-dihydro-2H-chromen-2-yl]-N-([5-(4-fluorophenyl)pyridin-3-yl]methyl)methanamine], the “GIRK channel signaling pathway: agonist type” value (D4.2 dopamine receptor [6]) is listed as “partial agonist”, the “adenylyl cyclase pathway: agonist type” value (D2L dopamine receptor [7]) is listed as “full agonist” and the “tolerance and SRT properties at D2S” value (D2S dopamine receptor) is listed as “induces tolerance and slow response termination (SRT) properties”. The “adenylyl cyclase pathway: agonist type” value (D4.2 dopamine receptor [8]) was “full agonist” and the “GIRK channel signaling pathway: agonist type” value (D2L dopamine receptor [9]) was “partial agonist”.
